Measured values taken from patent publication US20260199213A1, “PEPTIDE HAVING ACTIVITY OF IMPROVING STATE OF SKIN, AND USE THEREOF” (CAREGEN CO., LTD., priority 2022, published 2026).

Key:
Format in all cases: cell-based
[1] = test system: sirtuin-1 (SIRT-1); assay: SIRT-1 expression by RT-PCR in HaCaT cells; conditions: 10 μM, 50 μM or 1000 μM peptide, 24 hours
Description: (§1) In this example, the aim was to confirm the effect of the peptides according to an example on strengthening the skin barrier, by evaluating the expression levels of sirtuin-1 (SIRT-1) or aquaporin-3 (AQP3).
(§2) Specifically, HaCaT cells were seeded in a 6-well plate at a density of 3×10^5 cells/well and cultured for 24 hours. Next, the cells were washed once with serum-free DMEM media, and 10 μM, 50 μM or 1000 μM of the peptide consisting of the amino acid sequence of SEQ ID NO: 1 was dispensed into 1 mL of the serum-free media, and cultured in a CO2 incubator at 37° C. for 24 hours. Next, the culture was washed twice with PBS, and RNA was isolated from the culture using easy blue (iNtRON, Cat. No.: 17061, Korea). Next, using an RT kit (Enzynomics, Cat. NO.: RT200, Korea), the isolated RNA was reverse transcribed to synthesize the respective cDNA. Next, using the synthesized 1 ug cDNA, primers for SIRT-1 or AQP3, and a PCR kit (Enzynomics, Cat. No.: P581T, Korea), polymerase chain reaction (PCR) was performed. Meanwhile, in this example, an untreated group was used as the control group, and a group to which EGF was added was used as a positive control group, the nucleotide sequences of the primers used in this example are shown in Table 3 below.

[2] = test system: aquaporin-3 (AQP3); assay: AQP3 expression by RT-PCR in HaCaT cells; conditions: 10 μM, 50 μM or 1000 μM peptide, 24 hours
Description: as §1, §2

[3] = test system: reactive oxygen species in NIH3T3 cells; assay: Reactive oxygen species increased by ultraviolet rays in NIH3T3 cells (DCF-DA, flow cytometry); conditions: fibroblasts (NIH3T3); 6 J/cm^2 UV; 10 μM, 50 μM or 1000 μM peptide; 24 hours
Description: In this example, the aim was to confirm the effect of the peptide according to an embodiment on the antioxidant effect in damaged skin, by evaluating the change in the level of reactive oxygen species in skin cells increased by ultraviolet irradiation.
Specifically, NIH3T3 cells or HaCaT cells were seeded in a 6-well plate at a density of 5×10^5 cells/well and cultured for 24 hours. Next, the cells were washed once with serum-free DMEM media, and 10 μM, 50 μM or 1000 μM of the peptide consisting of the amino acid sequence of SEQ ID NO: 1 was dispensed into 1 mL of the serum-free media, and cultured in a CO2 incubator at 37° C. for 1 hour. Next, the above culture was transferred to an e-tube, mixed with 1 ml of PBS, and dispensed into a well plate. Next, using a UV irradiator (VILBER LOURMAT, Cat No.: 3102-BSU, France), 6 J/cm^2 ultraviolet rays were irradiated to NIH3T3 cells, and 15 mJ/cm^2 ultraviolet rays were irradiated to HaCaT cells. Next, the PBS in the well plate was removed, 900 μL of the culture medium in which the peptides were dispensed was added, and the plate was cultured in a CO2 incubator at 37° C. for 24 hours. […] After washing the centrifuged cells with PBS, FL1 fluorescence values were measured through flow cytometry (FACS, BD, USA). […]

[4] = test system: elastin; assay: Elastin expression by RT-PCR in NIH3T3 cells
Description: In this example, the aim was to confirm the effect of the peptide according to an example on improving endogenous skin aging, including improvement of wrinkles and enhancement of elasticity, etc., by evaluating the expression levels of collagen type 1 (Col1a1), fibronectin, elastin, and hyaluronic acid, which are known components of the dermis.
Specifically, NIH3T3 cells were seeded in a 6-well plate at a density of 3×10^5 cells/well and cultured for 24 hours. Next, the cells were washed once with serum-free DMEM media, and 10 μM, 50 μM or 1000 μM of a peptide consisting of an amino acid sequence of SEQ ID NO: 1 was dispensed into 1 mL of the serum-free media, and cultured in a CO2 incubator at 37° C. for 24 hours. Next, the culture was washed twice with PBS, and RNA was isolated from the culture using easy blue (iNtRON, Cat. No.: 17061, Korea). Next, using an RT kit (Enzynomics, Cat. NO.: RT200, Korea), the isolated RNA was reverse transcribed to synthesize the respective cDNA. Next, using the synthesized 1 ug cDNA, primers for Colla1, fibronectin, or elastin, and a PCR kit (Enzynomics, Cat. No.: P581T, Korea), polymerase chain reaction (PCR) was performed. Meanwhile, in this example, an untreated group was used as a control group, and a group to which […] was added was used as a positive control group, the nucleotide sequences of the primers used in this example are shown in Table 2 below.
In this example, the aim was to more specifically compare the effects of peptides according to an embodiment on improving intrinsic skin aging. To this end, a peptide consisting of an amino acid sequence of SEQ ID NO: 2, 3, or 4 having a sequence similar to a peptide according to an embodiment was set as a comparison group, and the expression levels of fibronectin and elastin were evaluated and compared in the same manner as in Example 2-1. […]

[5] = test system: procollagen I alpha; assay: Procollagen I alpha protein level by Collagen ELISA in NIH3T3 cells; conditions: 10 μM, 50 μM or 1000 μM peptide, 72 hours
Description: Additionally, to evaluate the expression levels of procollagen I alpha and hyaluronic acid at the protein level, NIH3T3 cells or HaCaT cells were seeded at a density of 1×10^4 cells/well in 24-well plates and then cultured for 24 hours. Next, the cells were washed once with serum-free DMEM media, and 10 μM, 50 μM or 1000 μM of the peptide consisting of the amino acid sequence of SEQ ID NO: 1 was dispensed into 2 mL of the serum-free media, and cultured in a CO2 incubator at 37° C. for 72 hours. Next, the culture was centrifuged to settle the suspended matter, and the supernatant was transferred to an e-tube. Next, Collagen ELISA (abcam, Cat No.: ab210579, UK) and HA ELISA (ECHELON biosciences, Cat No.: K-1200, USA) were performed on the centrifuged culture. Meanwhile, in this example, an untreated group was used as the control group, and a group to which TGF-β1 or EGF was added was used as the positive control group.

Substance: GPRGDP [SEQ ID NO: 1]
- expression of skin barrier factor SIRT-1 [1]: increases
- expression of skin barrier factor AQP3 [2]: increases
- level of reactive oxygen species increased by ultraviolet irradiation [3]: reduced
- expression of elastin ([4]; 10 μM, 50 μM or 1000 μM peptide, 24 hours, PCR, vs untreated group): increased
- expression of elastin (Example 2-2) ([4]; comparison experiment, FIG. 5 and FIG. 6): increased
- elastin expression effect compared to the comparison group ([4]; vs peptides of SEQ ID NO: 2, 3, or 4 (50 μM, 100 μM)): superior
- expression of procollagen I alpha at the protein level [5]: increased
